Results reported in patent US20160046618A1, “Cyclopropyl Fused Thiazin-2-Amine Compounds as Beta-Secretase Inhibitors and Methods of Use” (AMGEN INC., priority 2014, published 2016).

How the values were obtained:
[1] = target: Recombinant Cat D (Homo sapiens (Human), UniProt P07339); assay: In vitro enzymatic Cathepsin D (Cat D) FRET assay; assay type: biochemical; settings: read-out: IC50 IP (μM) CatD
Outline: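 Cleavage of a 20 nM FRET peptide by CHO-derived Cat D over 1 h at pH 3.5 (citrate buffer with CHAPS, 10% DMSO final). Endpoint fluorescence is read after Tris quench.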

[2] = target: human recombinant BACE2 (Homo sapiens (Human), UniProt Q9Y5Z0); assay: In vitro enzymatic BACE2 FRET assay; assay type: biochemical; settings: read-out: IC50 IP (μM) BACE2 enzyme
Sequence of human recombinant BACE2 (Q9Y5Z0 63-518): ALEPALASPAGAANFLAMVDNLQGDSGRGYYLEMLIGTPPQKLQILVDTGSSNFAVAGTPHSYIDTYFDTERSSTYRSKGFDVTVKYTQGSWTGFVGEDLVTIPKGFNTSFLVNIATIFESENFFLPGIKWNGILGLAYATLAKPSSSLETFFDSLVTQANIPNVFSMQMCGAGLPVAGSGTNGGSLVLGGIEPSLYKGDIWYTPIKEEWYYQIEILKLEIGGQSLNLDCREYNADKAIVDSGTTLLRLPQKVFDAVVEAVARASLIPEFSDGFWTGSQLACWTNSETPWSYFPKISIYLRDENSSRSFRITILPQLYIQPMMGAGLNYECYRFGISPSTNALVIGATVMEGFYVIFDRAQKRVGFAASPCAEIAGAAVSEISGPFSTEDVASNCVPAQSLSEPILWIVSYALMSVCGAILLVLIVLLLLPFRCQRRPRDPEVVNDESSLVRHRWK
Outline: (§1)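 Fluorescence from cleavage of a quenched peptide spanning the BACE site (50 nM) was read at 488 nm excitation, 590 nm emission. Purified enzyme (Ni-NTA) and compound reacted for one hour before a Tris stop shifted pH to neutral.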

[3] = target: human recombinant BACE1 (Homo sapiens (Human), UniProt P56817); assay: In vitro enzymatic BACE1 FRET assay; assay type: biochemical; settings: read-out: IC50 IP (μM) BACE1 enzyme
Sequence of human recombinant BACE1 (P56817 46-501): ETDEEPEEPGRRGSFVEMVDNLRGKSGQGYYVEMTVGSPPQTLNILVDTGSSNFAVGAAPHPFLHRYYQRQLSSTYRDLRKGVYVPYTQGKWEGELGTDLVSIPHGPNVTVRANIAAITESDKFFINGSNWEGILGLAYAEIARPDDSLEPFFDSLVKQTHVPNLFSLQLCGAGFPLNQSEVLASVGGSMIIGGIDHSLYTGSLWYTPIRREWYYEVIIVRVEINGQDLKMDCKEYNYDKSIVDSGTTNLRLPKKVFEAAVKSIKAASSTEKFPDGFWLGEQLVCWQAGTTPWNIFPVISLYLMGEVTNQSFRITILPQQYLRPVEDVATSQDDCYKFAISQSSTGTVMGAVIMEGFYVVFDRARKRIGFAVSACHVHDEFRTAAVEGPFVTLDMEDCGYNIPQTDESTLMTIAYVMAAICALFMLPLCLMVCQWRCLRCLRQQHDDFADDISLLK
Outline: as §1

[4] = tested on: Aβ40 in conditioned medium of cells stably expressing Amyloid Precursor Protein (APP); assay: In vitro BACE-1 cell-based assay (Aβ40 sandwich ELISA); settings: read-out: IC50 IP (μM) BACE1 cell
Outline: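 Aβ40 in supernatants measured by time-resolved fluorescence sandwich ELISA, with pAb40 as capture and biotin-6E10 as detector antibody, each incubated at 4 °C.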

Sequence of Recombinant Cat D (P07339 65-412): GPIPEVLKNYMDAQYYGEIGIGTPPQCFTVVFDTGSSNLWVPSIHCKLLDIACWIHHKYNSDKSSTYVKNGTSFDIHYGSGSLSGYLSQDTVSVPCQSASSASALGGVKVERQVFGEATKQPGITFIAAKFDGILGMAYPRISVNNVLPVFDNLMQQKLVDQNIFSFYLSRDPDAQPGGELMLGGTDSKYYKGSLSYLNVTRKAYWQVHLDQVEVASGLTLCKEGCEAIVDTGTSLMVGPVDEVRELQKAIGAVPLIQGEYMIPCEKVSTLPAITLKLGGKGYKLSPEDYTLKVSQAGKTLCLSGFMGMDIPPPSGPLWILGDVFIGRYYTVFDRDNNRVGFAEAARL

## COC[C@@]12SC(N)=N[C@](C)(c3cc(NC(=O)c4ccc(Cl)cn4)ccc3F)[C@@H]1C2(F)F [Example 710, N-(3-((1S,5S,6R)-3-amino-7,7-difluoro-1-(methoxymethyl)-5-methyl-2-thia-4-azabicyclo[4.1.0]hept-3-en-5-yl)-4-fluorophenyl)-5-chloro-2-pyridinecarboxamide]
[1]
  IC50: 379 µM
[2]
  IC50: < 0.00203 µM
[3]
  IC50: 0.00599 µM
[4]
  IC50: 0.055 µM

## CC(C)(O)[C@@]12SC(N)=N[C@](C)(c3cc(NC(=O)c4ccc(Cl)cn4)ccc3F)[C@@H]1C2(F)F [Example 711, N-(3-((1S,5S,6R)-3-amino-7,7-difluoro-1-(1-hydroxy-1-methylethyl)-5-methyl-2-thia-4-azabicyclo[4.1.0]hept-3-en-5-yl)-4-fluorophenyl)-5-chloro-2-pyridinecarboxamide]
[1]
  IC50: 753 µM
[2]
  IC50: < 0.00203 µM
[3]
  IC50: 0.00311 µM
[4]
  IC50: 0.014 µM

## C#CCOc1cnc2c(Nc3ccc(F)c([C@@]4(C)N=C(N)S[C@]5([C@@H](C)O)[C@H]4C5(F)F)c3)nccc2n1 [Example 713, (1R)-1-((1S,5S,6R)-3-amino-7,7-difluoro-5-(2-fluoro-5-((2-(2-propyn-1-yloxy)pyrido[3,4-b]pyrazin-5-yl)amino)phenyl)-5-methyl-2-thia-4-azabicyclo[4.1.0]hept-3-en-1-yl)ethanol]
[1]
  IC50: 547 µM
[2]
  IC50: 0.00394 µM
[3]
  IC50: 0.000864 µM
[4]
  IC50: 0.00543 µM

## C#CCOc1cnc2c(Nc3ccc(F)c([C@@]4(C)N=C(N)S[C@]5([C@H](C)O)[C@H]4C5(F)F)c3)nccc2n1 [Example 714, (1S)-1-((1S,5S,6R)-3-amino-7,7-difluoro-5-(2-fluoro-5-((2-(2-propyn-1-yloxy)pyrido[3,4-b]pyrazin-5-yl)amino)phenyl)-5-methyl-2-thia-4-azabicyclo[4.1.0]hept-3-en-1-yl)ethanol]
[1]
  IC50: 613 µM
[2]
  IC50: 0.00913 µM
[3]
  IC50: 0.00102 µM
[4]
  IC50: 0.0109 µM

## CCOC[C@]12C[C@H]1[C@@](CF)(c1cc(NC(=O)c3ncc(C#N)cc3C)ccc1F)N=C(N)S2 [Example 715, N-(3-((1S,5S,6S)-3-amino-1-(ethoxymethyl)-5-(fluoromethyl)-2-thia-4-azabicyclo[4.1.0]hept-3-en-5-yl)-4-fluorophenyl)-5-cyano-3-methyl-2-pyridinecarboxamide]
[1]
  IC50: 918 µM
[2]
  IC50: 0.00881 µM
[3]
  IC50: 0.00409 µM
[4]
  IC50: 0.00635 µM

## COC[C@]12C[C@H]1[C@@](CF)(c1cc(NC(=O)c3ncc(C#N)cc3C)ccc1F)N=C(N)S2 [Example 716, N-(3-((1S,5S,6S)-3-amino-5-(fluoromethyl)-1-(methoxymethyl)-2-thia-4-azabicyclo[4.1.0]hept-3-en-5-yl)-4-fluorophenyl)-5-cyano-3-methyl-2-pyridinecarboxamide]
[1]
  IC50: 2290 µM
[2]
  IC50: 0.00196 µM
[3]
  IC50: 0.00216 µM
[4]
  IC50: 0.00431 µM

## COC[C@]12C[C@H]1[C@@](CF)(c1cc(Nc3nccc4cc(C#N)cnc34)ccc1F)N=C(N)S2 [Example 717, 8-((3-((1S,5S,6S)-3-amino-5-(fluoromethyl)-1-(methoxymethyl)-2-thia-4-azabicyclo[4.1.0]hept-3-en-5-yl)-4-fluorophenyl)amino)-1,7-naphthyridine-3-carbonitrile]
[1]
  IC50: > 400 µM
[2]
  IC50: 0.00332 µM
[3]
  IC50: 0.0072 µM
[4]
  IC50: 0.0239 µM

## N#CC[C@]12C[C@H]1[C@@](CF)(c1cc(NC(=O)c3ccc(Cl)cn3)ccc1F)N=C(N)S2 [Example 718, N-(3-((1R,5S,6S)-3-amino-1-(cyanomethyl)-5-(fluoromethyl)-2-thia-4-azabicyclo[4.1.0]hept-3-en-5-yl)-4-fluorophenyl)-5-chloro-2-pyridinecarboxamide]
[1]
  IC50: 921 µM
[2]
  IC50: 0.00131 µM
[3]
  IC50: 0.00367 µM
[4]
  IC50: 0.04 µM

## N#CC[C@]12C[C@H]1[C@@](CF)(c1cc(Nc3nccc4cc(C#N)cnc34)ccc1F)N=C(N)S2 [Example 719, 8-((3-((1R,5S,6S)-3-amino-1-(cyanomethyl)-5-(fluoromethyl)-2-thia-4-azabicyclo[4.1.0]hept-3-en-5-yl)-4-fluorophenyl)amino)-1,7-naphthyridine-3-carbonitrile]
[1]
  IC50: 1490 µM
[2]
  IC50: 0.00397 µM
[3]
  IC50: 0.00442 µM
[4]
  IC50: 0.0138 µM

## C#CCOc1cnc2c(Nc3ccc(F)c([C@@]4(CF)N=C(N)S[C@@]5(CC#N)C[C@H]54)c3)nccc2n1 [Example 720, ((1R,5S,6S)-3-amino-5-(fluoromethyl)-5-(2-fluoro-5-((2-(2-propyn-1-yloxy)pyrido[3,4-b]pyrazin-5-yl)amino)phenyl)-2-thia-4-azabicyclo[4.1.0]hept-3-en-1-yl)acetonitrile]
[1]
  IC50: 648 µM
[2]
  IC50: 0.0273 µM
[3]
  IC50: 0.000935 µM
[4]
  IC50: 0.00151 µM

## N#CC[C@]12C[C@H]1[C@@](CF)(c1cc(Nc3nccc4nc(OCc5ncco5)cnc34)ccc1F)N=C(N)S2 [Example 721, ((1R,5S,6S)-3-amino-5-(fluoromethyl)-5-(2-fluoro-5-((2-(1,3-oxazol-2-ylmethoxy)pyrido[3,4-b]pyrazin-5-yl)amino)phenyl)-2-thia-4-azabicyclo[4.1.0]hept-3-en-1-yl)acetonitrile]
[1]
  IC50: 2130 µM
[2]
  IC50: 0.0677 µM
[3]
  IC50: 0.00162 µM
[4]
  IC50: 0.00474 µM

## NC1=N[C@](CF)(c2cc(NC(=O)c3ccc(Cl)cn3)ccc2F)[C@@H]2C[C@]2(Cn2ccnn2)S1 [Example 722, N-(3-((1S,5S,6S)-3-amino-5-(fluoromethyl)-1-(1H-1,2,3-triazol-1-ylmethyl)-2-thia-4-azabicyclo[4.1.0]hept-3-en-5-yl)-4-fluorophenyl)-5-chloro-2-pyridinecarboxamide]
[1]
  IC50: 684 µM
[2]
  IC50: < 0.00203 µM
[3]
  IC50: 0.0118 µM
[4]
  IC50: 0.0209 µM

## N#CCC[C@]12C[C@H]1[C@@](CF)(c1cc(NC(=O)c3ccc(Cl)cn3)ccc1F)N=C(N)S2 [Example 723, N-(3-((1S,5S,6S)-3-amino-1-(2-cyanoethyl)-5-(fluoromethyl)-2-thia-4-azabicyclo[4.1.0]hept-3-en-5-yl)-4-fluorophenyl)-5-chloro-2-pyridinecarboxamide]
[1]
  IC50: 282 µM
[2]
  IC50: < 0.00203 µM
[3]
  IC50: 0.00169 µM
[4]
  IC50: 0.00431 µM

## C#CCOc1cnc2c(Nc3ccc(F)c([C@@]4(CF)N=C(N)S[C@@]5(Cn6cc(C)nn6)C[C@H]54)c3)nccc2n1 [Example 724, N-(3-((1S,5S,6S)-3-amino-5-(fluoromethyl)-1-((4-methyl-1H-1,2,3-triazol-1-yl)methyl)-2-thia-4-azabicyclo[4.1.0]hept-3-en-5-yl)-4-fluorophenyl)-2-(2-propyn-1-yloxy)pyrido[3,4-b]pyrazin-5-amine]
[1]
  IC50: 1080 µM
[2]
  IC50: 0.0746 µM
[3]
  IC50: 0.00208 µM
[4]
  IC50: 0.00712 µM

## Cc1cnnn1C[C@]12C[C@H]1[C@@](CF)(c1cc(NC(=O)c3ccc(Cl)cn3)ccc1F)N=C(N)S2 [Example 725, N-(3-((1S,5S,6S)-3-amino-5-(fluoromethyl)-1-((5-methyl-1H-1,2,3-triazol-1-yl)methyl)-2-thia-4-azabicyclo[4.1.0]hept-3-en-5-yl)-4-fluorophenyl)-5-chloro-2-pyridinecarboxamide]
[1]
  IC50: 1160 µM
[2]
  IC50: 0.00251 µM
[3]
  IC50: 0.00565 µM
[4]
  IC50: 0.0148 µM

## COC[C@]12C[C@H]1[C@@](C)(c1cc(Nc3nccc4cc(OCc5cnco5)cnc34)cc(F)c1F)N=C(N)S2 [Example 726, N-(3-((1S,5S,6S)-3-amino-1-(methoxymethyl)-5-methyl-2-thia-4-azabicyclo[4.1.0]hept-3-en-5-yl)-4,5-difluorophenyl)-3-(1,3-oxazol-5-ylmethoxy)-1,7-naphthyridin-8-amine]
[1]
  IC50: > 400 µM
[2]
  IC50: 0.641 µM
[3]
  IC50: 0.179 µM
[4]
  IC50: 0.406 µM

## COC[C@]12C[C@H]1[C@@](C)(c1cc(Nc3nccc4cc(OCC#N)cnc34)cc(F)c1F)N=C(N)S2 [Example 729, ((8-((3-((1S,5S,6S)-3-amino-1-(methoxymethyl)-5-methyl-2-thia-4-azabicyclo[4.1.0]hept-3-en-5-yl)-4,5-difluorophenyl)amino)-1,7-naphthyridin-3-yl)oxy)acetonitrile]
[1]
  IC50: 856 µM
[2]
  IC50: 0.385 µM
[3]
  IC50: 0.0282 µM
[4]
  IC50: 0.0457 µM

## COC[C@]12C[C@H]1[C@@](C)(c1cc(Nc3nccc4cc(OCc5ncon5)cnc34)cc(F)c1F)N=C(N)S2 [Example 730, N-(3-((1S,5S,6S)-3-amino-1-(methoxymethyl)-5-methyl-2-thia-4-azabicyclo[4.1.0]hept-3-en-5-yl)-4,5-difluorophenyl)-3-(1,2,4-oxadiazol-3-ylmethoxy)-1,7-naphthyridin-8-amine]
[1]
  IC50: 1380 µM
[2]
  IC50: 1.03 µM
[3]
  IC50: 0.0157 µM
[4]
  IC50: 0.0759 µM

## COC[C@]12C[C@H]1[C@@](C)(c1cc(Nc3nccc4cc(OCC(F)(F)C(F)F)cnc34)cc(F)c1F)N=C(N)S2 [Example 731, N-(3-((1S,5S,6S)-3-amino-1-(methoxymethyl)-5-methyl-2-thia-4-azabicyclo[4.1.0]hept-3-en-5-yl)-4,5-difluorophenyl)-3-(2,2,3,3-tetrafluoropropoxy)-1,7-naphthyridin-8-amine]
[1]
  IC50: 1100 µM
[2]
  IC50: 3.83 µM
[3]
  IC50: 0.0668 µM
[4]
  IC50: 1.3 µM
